Series [1] concerns the target T1, Cyclin-dependent kinase 1/cyclin B1 (Homo sapiens, UniProt P06493). The series can be described thus: Inhibition of recombinant CDK1/GST-fused cyclin B (unknown origin) expressed in baculovirus infected insect Sf9 cells by substrate phosphorylation assay in presence of [33P]-gamma adenosine triphosphate.
Series [2] concerns the target T2, Cyclin-dependent kinase 2/cyclin E1 (Homo sapiens, UniProt P24941). The series can be described thus: Inhibition of recombinant CDK2/GST-fused cyclin E (unknown origin) expressed in baculovirus infected insect Sf9 cells by substrate phosphorylation assay in presence of [33P]-gamma adenosine triphosphate.
In series [3] the target is Vascular endothelial growth factor receptor 2 (Homo sapiens, UniProt P35968). The series can be described thus: Inhibition of VEGFR2 (unknown origin).
A further series has as its system MCF7. The series can be described thus: Cytotoxicity against human MCF7 cells assessed as growth inhibition after 96 hrs. The following applies: MCF7, 96 h. It counts as functional, cell-based.
A further series deals with Carbonic anhydrase 2 (Homo sapiens, UniProt P00918). In words: Inhibition of carbonic anhydrase-2 (unknown origin).
Series [4] concerns the target T3, Cyclin-dependent kinase 2/cyclin A (Homo sapiens, UniProt P24941). In words: Non-competitive inhibition of human CDK2/cyclinA using PKTPKKAKKL as substrate in presence of ATP. Type of series: protein-complex assay.
The subject of the next series is MDA-MB-231. The series can be described thus: Cytotoxicity against human MDA-MB-231 cells. Type of series: functional, cell-based.
Series [5] addresses T4, Cyclin-dependent kinase 4/cyclin D1 (Homo sapiens, UniProt P11802). The series can be described thus: Inhibition of human CDK4/cyclin D1 expressed in insect cells assessed as phosphorylation of CTRF after 50 mins by microplate scintillation counter.
For series [6], the target named is T1, Cyclin-dependent kinase 1/cyclin B1. It counts as protein-complex assay.
Description: Inhibition of human CDK1/cyclin B1 (unknown origin)
Series [7] has as its target T5, Cyclin-dependent kinase 4/6 (Homo sapiens, UniProt P11802+Q00534). In words: Inhibition of CDK4/6 in human COLO205 cells assessed as inhibition of Rb phosphorylation after 24 hrs by propidium iodide staining-based laser-scanning fluorescence microplate cytometric analysis. Type of series: cell-based. The conditions noted are these: colo 205.
The target of series [8] is T5, Cyclin-dependent kinase 4/6. The series can be described thus: Inhibition of CDK4/6 in human COLO205 cells assessed as maximum cell cycle arrest at G1 phase after 24 hrs by propidium iodide staining-based flow cytometric analysis. The following applies: COLO 205. (A flow cytometer gives signals particle by particle.)
In series [9] the target is T3, Cyclin-dependent kinase 2/cyclin A. The series can be described thus: Competitive inhibition of human CDK2/cyclinA using PKTPKKAKKL as substrate in presence of ATP. Type of series: protein-complex assay.
The target of series [10] is T4, Cyclin-dependent kinase 4/cyclin D1. The series can be described thus: Inhibition of CDK4/cyclin D1 (unknown origin) expressed in baculovirus infected insect Sf9 cells assessed as inhibition of GST-tagged Rb phosphorylation after 30 mins in presence of [33P]-ATP.
The target of series [11] is T2, Cyclin-dependent kinase 2/cyclin E1. The series can be described thus: Inhibition of CDK2/cyclin E (unknown origin) expressed in baculovirus infected insect Sf9 cells assessed as inhibition of GST-tagged Rb phosphorylation after 30 mins in presence of [33P]-ATP.
A further series deals with HCT-116. In words: Cytotoxicity against human HCT116 cells assessed as growth inhibition after 3 days by MTT assay. It counts as functional, cell-based. The following applies: HCT-116, 72 h. A general note: Tetrazolium dyes change colour on reduction, which living cells bring about.
Series [12] in a line: Chemical stability of the compound in phosphate buffer assessed as remaining compound at pH 1.2 at 37 degC after 3 hrs. Type of series: physicochemical. The conditions noted are these: read-out: Stability.
In another series the test system is Jurkat. The series can be described thus: Cytotoxicity against human Jurkat cells assessed as cell viability after 72 hrs by resazurin assay. Type of series: functional, cell-based. In general terms: The colour change of resazurin is a common sign of viable cells or microbes.
The test system of a further series is MDA-MB-468. The series can be described thus: Antiproliferative activity against Rb-negative human MDA-MB-468 cells assessed as inhibition of [14C]-thymidine incorporation into DNA preincubated for 24 hrs followed by [14C]-thymidine addition measured after 72 hrs by beta plate counting analysis. Type of series: cell-based.

Sequence of Vascular endothelial growth factor receptor 2 (P35968 whole entry): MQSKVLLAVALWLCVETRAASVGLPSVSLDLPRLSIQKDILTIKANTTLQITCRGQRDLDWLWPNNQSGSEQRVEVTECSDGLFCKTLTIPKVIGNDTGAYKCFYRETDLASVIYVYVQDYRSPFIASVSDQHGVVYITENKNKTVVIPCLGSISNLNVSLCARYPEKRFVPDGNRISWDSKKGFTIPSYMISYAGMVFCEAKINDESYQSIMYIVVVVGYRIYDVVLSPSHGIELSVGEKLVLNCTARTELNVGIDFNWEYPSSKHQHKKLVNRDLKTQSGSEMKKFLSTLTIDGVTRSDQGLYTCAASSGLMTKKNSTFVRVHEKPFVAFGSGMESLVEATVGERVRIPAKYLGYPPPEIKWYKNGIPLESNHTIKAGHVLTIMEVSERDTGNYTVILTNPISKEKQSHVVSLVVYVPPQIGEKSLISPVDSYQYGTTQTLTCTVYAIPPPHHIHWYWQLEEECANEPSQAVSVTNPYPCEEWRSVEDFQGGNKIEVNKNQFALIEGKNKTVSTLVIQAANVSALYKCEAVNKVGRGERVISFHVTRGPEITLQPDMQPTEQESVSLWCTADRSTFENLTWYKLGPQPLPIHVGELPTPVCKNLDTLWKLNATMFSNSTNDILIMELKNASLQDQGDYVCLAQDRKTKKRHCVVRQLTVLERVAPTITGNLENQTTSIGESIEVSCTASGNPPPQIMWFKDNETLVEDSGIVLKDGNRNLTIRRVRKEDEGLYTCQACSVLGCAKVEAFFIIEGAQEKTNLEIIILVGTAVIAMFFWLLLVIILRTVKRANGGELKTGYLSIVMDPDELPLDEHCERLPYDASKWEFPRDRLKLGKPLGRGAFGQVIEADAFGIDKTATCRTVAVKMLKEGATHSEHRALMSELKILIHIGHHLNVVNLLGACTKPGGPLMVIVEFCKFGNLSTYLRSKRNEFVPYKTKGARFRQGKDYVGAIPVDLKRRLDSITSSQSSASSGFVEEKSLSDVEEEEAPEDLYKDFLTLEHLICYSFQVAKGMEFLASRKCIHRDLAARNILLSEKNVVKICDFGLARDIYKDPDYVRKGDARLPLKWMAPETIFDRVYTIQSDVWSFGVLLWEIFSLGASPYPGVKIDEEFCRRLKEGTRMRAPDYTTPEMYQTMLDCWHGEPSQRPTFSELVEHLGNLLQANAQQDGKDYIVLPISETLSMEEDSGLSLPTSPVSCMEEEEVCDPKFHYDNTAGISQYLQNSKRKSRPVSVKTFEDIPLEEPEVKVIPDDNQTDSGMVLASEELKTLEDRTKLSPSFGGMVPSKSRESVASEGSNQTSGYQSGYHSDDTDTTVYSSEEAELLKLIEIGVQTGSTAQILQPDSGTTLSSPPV
T4 sequence (P11802 whole entry): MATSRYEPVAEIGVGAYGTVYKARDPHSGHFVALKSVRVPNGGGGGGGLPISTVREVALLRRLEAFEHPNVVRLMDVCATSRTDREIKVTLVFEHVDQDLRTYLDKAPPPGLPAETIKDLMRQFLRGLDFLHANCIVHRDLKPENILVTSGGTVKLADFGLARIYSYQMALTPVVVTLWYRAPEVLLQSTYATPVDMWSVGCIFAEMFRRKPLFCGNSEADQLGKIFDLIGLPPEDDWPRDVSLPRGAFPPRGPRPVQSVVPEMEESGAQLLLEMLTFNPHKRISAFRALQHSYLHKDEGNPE
T4 sequence (P24385 whole entry, further chain): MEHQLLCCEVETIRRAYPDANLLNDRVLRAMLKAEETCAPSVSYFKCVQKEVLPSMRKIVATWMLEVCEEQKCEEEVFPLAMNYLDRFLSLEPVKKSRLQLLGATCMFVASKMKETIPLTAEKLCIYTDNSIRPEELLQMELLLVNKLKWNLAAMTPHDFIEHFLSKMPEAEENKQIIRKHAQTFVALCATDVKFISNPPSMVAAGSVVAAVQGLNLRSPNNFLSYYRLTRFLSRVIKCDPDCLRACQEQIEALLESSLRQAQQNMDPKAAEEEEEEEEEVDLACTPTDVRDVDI
T1 sequence (P06493 whole entry, the tested form may be a part): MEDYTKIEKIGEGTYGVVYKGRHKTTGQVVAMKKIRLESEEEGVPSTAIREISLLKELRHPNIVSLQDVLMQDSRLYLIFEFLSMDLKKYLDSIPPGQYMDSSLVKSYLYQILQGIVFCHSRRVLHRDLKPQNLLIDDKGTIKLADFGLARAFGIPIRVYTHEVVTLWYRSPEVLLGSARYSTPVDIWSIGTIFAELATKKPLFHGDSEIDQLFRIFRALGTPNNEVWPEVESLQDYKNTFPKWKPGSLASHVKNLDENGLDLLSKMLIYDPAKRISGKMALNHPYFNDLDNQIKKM
T1 sequence (P14635 whole entry, further chain, the tested form may be a part): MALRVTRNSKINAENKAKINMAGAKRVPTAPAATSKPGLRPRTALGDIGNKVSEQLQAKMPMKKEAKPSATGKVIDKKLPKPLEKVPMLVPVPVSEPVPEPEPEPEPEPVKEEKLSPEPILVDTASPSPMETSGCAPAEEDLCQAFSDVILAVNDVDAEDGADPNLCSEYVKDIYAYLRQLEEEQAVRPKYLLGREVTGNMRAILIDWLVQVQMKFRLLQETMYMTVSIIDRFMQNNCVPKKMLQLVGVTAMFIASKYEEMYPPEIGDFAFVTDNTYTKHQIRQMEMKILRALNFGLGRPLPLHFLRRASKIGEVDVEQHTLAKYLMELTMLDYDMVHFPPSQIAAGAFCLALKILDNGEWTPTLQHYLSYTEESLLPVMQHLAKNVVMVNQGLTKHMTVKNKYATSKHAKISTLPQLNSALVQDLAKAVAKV
T5 sequence (P11802 whole entry, looked up): as the sequence (P11802 whole entry) above
T5 sequence (Q00534 whole entry, looked up): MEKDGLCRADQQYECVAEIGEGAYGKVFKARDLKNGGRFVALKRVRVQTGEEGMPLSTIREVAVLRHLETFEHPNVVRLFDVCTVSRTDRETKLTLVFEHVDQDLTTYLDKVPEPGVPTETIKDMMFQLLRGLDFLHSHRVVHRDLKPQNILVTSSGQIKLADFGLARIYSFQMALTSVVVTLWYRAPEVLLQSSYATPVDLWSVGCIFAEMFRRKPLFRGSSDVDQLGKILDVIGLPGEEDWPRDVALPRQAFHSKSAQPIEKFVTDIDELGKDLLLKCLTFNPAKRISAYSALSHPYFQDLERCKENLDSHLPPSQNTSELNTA

The IC50 is the concentration needed to halve the response being measured. As for `CC[S@@](=N)(=O)c1ccc(Nc2ncc(Br)c(N[C@H](C)[C@@H](C)O)n2)cc1`, the IC50 is 3 nM in [1]; 2 nM in [2]; 32 nM in [3]; 44 nM with MCF7; more than 10000 nM against Carbonic anhydrase 2.

Regarding `CC1=C(C(=O)OC2CCCCC2)C(c2ccc([N+](=O)[O-])cc2)C2=C(CC(C)(C)CC2=O)N1` (stereo not drawn), the IC50 in series [4] was 71000 nM; in the series on MDA-MB-231, 4000 nM.

Turning to `C[C@@H](O)[C@@H](C)Nc1nc(Nc2ccc([S+](N)[O-])cc2)ncc1Br` (stereo partly drawn), the IC50 in series [1] stood at 10 nM; in series [2], 10 nM; in [3], 59 nM; with MCF7, 30 nM; at Carbonic anhydrase 2 it was 403 nM.

With `Cc1nc2ccc(-c3ccnc(Nc4ccc(CN5CCN(C(C)C)CC5)cn4)n3)cc2n1C(C)C`, the half-maximal inhibitory concentration (IC50) in [5] turned out to be 2 nM; in series [6] it was 1010 nM; in [7] it was 89 nM. Besides, in series [8], the INH was determined as 2.2 µM.

Turning to `C#CCNc1nc(Nc2ccccc2)ncc1Br`, the values for the half-inhibitory concentration (IC50) (in series [1]; in series [2]; in the series on MCF7) were 100 nM, 100 nM and 4000 nM, respectively.

With `N[S+]([O-])c1ccc(/N=N/c2ccc(O)[nH]c2=O)cc1` (stereo not drawn), the concentration for half-maximal inhibition (IC50) in series [9] is 45000 nM.

Take `C[C@@H](O)[C@@H](C)Oc1nc(Nc2ccc([S@](=N)(=O)C3CC3)cc2)ncc1C(F)(F)F` [RONICICLIB]: on Carbonic anhydrase 2, the IC50 is more than 10000 nM.

With `COc1ccc(Nc2nccc(-c3ccc4nc(C)n(C(C)C)c4c3)n2)cc1`, the 50% inhibitory concentration (IC50) in series [5] and in [6] was 4 nM in each case.

Take `C[C@@H](O)[C@@H](C)Oc1nc(Nc2ccc([S+](N)[O-])cc2)ncc1Br` (stereo partly drawn): the IC50 in [1] was determined as 4 nM; in series [2] it was 9 nM; in series [3] it was 122 nM; with MCF7, 48 nM.

Regarding `Cc1nc2ccc(-c3ccnc(Nc4ccc(N5CCNCC5)cn4)n3)cc2n1C(C)C`, the IC50 in series [5] is 2 nM; in series [6], 222 nM; in series [7], 42 nM. The INH in series [8] was found to be 0.2 µM.

For the compound `C[C@H](CO)Nc1nc(Nc2ccc(S(N)(=O)=O)cc2)ncc1Br`, the IC50 came out at 500 nM in series [1]; 4 nM in series [2]; 34 nM in series [3]; 266 nM in the series on MCF7; 514 nM on Carbonic anhydrase 2.

Regarding `CC(N)c1csc(/C=N/Nc2ncnc3sc(C(C)(C)C)cc23)n1` (stereo not drawn), the half-inhibitory concentration (IC50) was 19 nM in series [10], 830 nM in [11] and 177 nM with HCT-116. For the same compound, the remaining at 3 h in [12] amounted to 81%.

With `C[C@@H](O)[C@@H](C)Oc1nc(Nc2ccc(S(=N)(=O)C3CC3)cc2)ncc1C(F)(F)F` (stereo partly drawn) [RONICICLIB], the IC50 in the series on MCF7 amounted to 15 nM.

In the case of `CC(C)(C)c1cc2c(N/N=C/c3nccs3)ncnc2s1`, the IC50 in series [10] stood at 41 nM; in series [11], 200 nM; with HCT-116, 419 nM. Also, the remaining at 3 h in series [12] was 79%.

In the case of `CN(C)C/C=C/C(=O)Nc1ccc(C(=O)Nc2cccc(Nc3ncc(Cl)c(-c4c[nH]c5ccccc45)n3)c2)cc1`, the IC50 in the series with Jurkat amounted to 50 nM.

On to `CC(N)c1csc(/C=N/Nc2ncnc3sc(C(C)C(C)C)cc23)n1` (stereo not drawn), for which the IC50 in [10] was determined as 22 nM; in [11], 880 nM; in the series with HCT-116, 315 nM. In series [12], the remaining at 3 h was 83%.

For the compound `CC(Nc1cc(N2CCOCC2)ccc1[N+](=O)[O-])C12CC3CC(CC(C3)C1)C2` (stereo not drawn), the half-maximal inhibitory concentration (IC50) was 27000 nM in series [4] and more than 50000 nM in the series on MDA-MB-231.

Consider `CC(=O)c1c(C)c2cnc(Nc3ccc(N4CCNCC4)cn3)nc2n(C2CCCC2)c1=O` [PALBOCICLIB], for which the half-maximal inhibitory concentration (IC50) with MDA-MB-468 was more than 3000 nM.

For the origin of these results see ChEMBL document CHEMBL3603804, “Cyclin dependent kinase (CDK) inhibitors as anticancer drugs” (Bioorg Med Chem Lett, 2015).
